Laboratory results: ChEMBL document CHEMBL5030511, “Targeting KRAS Mutant Cancers via Combination Treatment: Discovery of a 5-Fluoro-4-(3H)-quinazolinone Aryl Urea pan-RAF Kinase Inhibitor” (J Med Chem, 2021)
In brackets after ≈: the same amount, converted by molar mass. Activity calls are given as the source filed them. The calls are words filed in the database; no cut-off is given here.

Legend:
A549 [1] = experiment: Antiproliferative activity against human A549 cells harboring KRAS mutant assessed as reduction in cell viability incubated for 24 hrs by Click-iT EdU cell proliferation imaging assay; assay type: functional, cell-based; conditions: A549, 24 h
A-375 [2] = experiment: Antiproliferative activity against human A-375 cells harboring BRAF mutant assessed as reduction in cell viability incubated for 24 hrs by Click-iT EdU cell proliferation imaging assay; assay type: functional, cell-based; conditions: A-375, 24 h
[3] = target: RAF proto-oncogene serine/threonine-protein kinase (Homo sapiens, UniProt P04049, Y340D/Y341D)
A549 [4] = experiment: Synergistic antiproliferative activity against human A549 cells harboring KRAS mutant assessed as reduction in cell viability incubated for 24 hrs in presence of 100 nM cobimetinib by Click-iT EdU cell proliferation imaging assay; assay type: functional, cell-based; conditions: A549, 24 h
HCT-116 [5] = experiment: Antitumour activity against human HCT-116 cells harboring KRAS mutant xenografted in NCR nude mouse assessed as tumor growth inhibition at 5 mg/kg, po qd for 21 days; assay type: functional, organism-based; conditions: time 21.0 day
Mus musculus [6] = experiment: Inhibition of pERK in human HCT-116 cells xenografted NCR nude mouse at 5 mg/kg, po qd for 4 days and measured after 2 to 8 hrs; assay type: functional, organism-based; conditions: time 4.0 day
[7] = Half life in mouse at 1 mg/kg, iv; assay type: ADME, organism-based; conditions: in vivo
Mus musculus [8] = experiment: Induction of CRAF phosphorylation in human HCT-116 cells xenografted NCR nude mouse at 10 mg/kg, po bid for 4 days in presence of Cobimetinib and measured after 2 to 8 hrs; assay type: functional, organism-based; conditions: time 4.0 day
Mus musculus [9] = experiment: Induction of stabilization of CRAF phosphorylation in human HCT-116 cells xenografted NCR nude mouse assessed as decrease in pRSK level at 10 mg/kg, po bid for 4 days in presence of Cobimetinib and measured after 8 hrs; assay type: functional, organism-based; conditions: time 4.0 day
[10] = Volume of distribution at steady state in mouse at 1 mg/kg, iv; assay type: ADME, organism-based; conditions: in vivo, read-out: Vdss
[11] = Apparent permeability from apical to basolateral side in dog MDCK cells; assay type: ADME, cell-based, Canis lupus familiaris
[12] = Oral bioavailability in mouse using PEG 400 at 5 mg/kg; assay type: ADME, organism-based; conditions: in vivo
Mus musculus [13] = experiment: Induction of stabilization of CRAF phosphorylation in human HCT-116 cells xenografted NCR nude mouse assessed as decrease in pERK level at 10 mg/kg, po bid for 4 days in presence of Cobimetinib and measured after 8 hrs; assay type: functional, organism-based; conditions: time 4.0 day
[14] = Kinetic solubility of the compound in pH 7.4 PBS buffer; assay type: physicochemical; conditions: read-out: Kinetic_solubility
Mus musculus [15] = experiment: Induction of stabilization of CRAF phosphorylation in human HCT-116 cells xenografted NCR nude mouse assessed as decrease in pRSK level at 10 mg/kg, po bid for 4 days and measured after 2 to 8 hrs; assay type: functional, organism-based; conditions: time 4.0 day
HCT-116 [16] = experiment: Antitumour activity against human HCT-116 cells harboring KRAS mutant xenografted in NCR nude mouse assessed as tumor growth inhibition at 10 mg/kg, po bid for 21 days; assay type: functional, organism-based; conditions: time 21.0 day
A549 [17] = experiment: Synergistic antiproliferative activity against human A549 cells harboring KRAS mutant assessed as inhibition of cell growth in presence of Cobimetinib by EdU staining based assay; assay type: functional; conditions: dose 0.02-5 µM
HCT-116 [18] = experiment: Antitumour activity against human HCT-116 cells harboring KRAS mutant xenografted in NCR nude mouse assessed as tumor growth inhibition at 10 mg/kg, po bid for 21 days in presence of 5 mg/kg Cobimetinib; assay type: functional; conditions: HCT-116, po, 504 h, time 21 day, read-out: TGI
Mus musculus [19] = experiment: Induction of stabilization of CRAF phosphorylation in human HCT-116 cells xenografted NCR nude mouse assessed as decrease in pERK level at 10 mg/kg, po bid for 4 days and measured after 2 to 8 hrs; assay type: functional, organism-based; conditions: time 4.0 day
[20] = Lipophilicity, log D of the compound at pH 7.4; assay type: physicochemical; conditions: buffer
A-375 [21] = experiment: Additive antiproliferative activity against human A-375 cells harboring BRAF mutant assessed as inhibition of cell growth in presence of Cobimetinib by EdU staining based assay; assay type: functional
HCT-116 [22] = experiment: Synergistic antiproliferative activity against human HCT-116 cells harboring KRAS mutant assessed as inhibition of cell growth at 0.003 to 0.93 uM in presence of Cobimetinib by EdU staining based assay; assay type: functional; conditions: dose 0.003-0.93 µM
[23] = target: Serine/threonine-protein kinase B-raf (Homo sapiens, UniProt P15056)
Description: Inhibition of BRAF (unknown origin) (416 to 766) inactive MAP2K1 as substrate preincubated for 30 mins measured after 90 mins by DELFIA assay

[24] = Oral bioavailability in mouse using amorphous spray-dried dispersion at 30 mg/kg; assay type: ADME, organism-based; conditions: in vivo
Mus musculus [25] = experiment: Induction of stabilization of CRAF phosphorylation in human HCT-116 cells xenografted NCR nude mouse assessed as decrease in pMEK level at 10 mg/kg, po bid for 4 days and measured after 2 to 8 hrs; assay type: functional, organism-based; conditions: time 4.0 day
[26] = Clearance in mouse at 1 mg/kg, iv; assay type: ADME, organism-based; conditions: in vivo
[27] = Toxicity in NCR nude mouse xenografted with human HCT-116 cells harboring KRAS mutant assessed as body weight loss at 10 mg/kg, po bid for 21 days; assay type: organism-based; conditions: in vivo, 504 h, time 21 day
[28] = Toxicity in NCR nude mouse xenografted with human HCT-116 cells harboring KRAS mutant assessed as body weight loss at 10 mg/kg, po bid for 21 days in presence of 5 mg/kg Cobimetinib; assay type: organism-based; conditions: in vivo, 504 h, time 21 day
[29] = Oral bioavailability in mouse using amorphous spray-dried dispersion at 25 mg/kg; assay type: ADME, organism-based; conditions: in vivo
[30] = Oral bioavailability in mouse using methylcellulose-tween at 5 mg/kg; assay type: ADME, organism-based; conditions: in vivo

Sequence of Serine/threonine-protein kinase B-raf (P15056 whole entry): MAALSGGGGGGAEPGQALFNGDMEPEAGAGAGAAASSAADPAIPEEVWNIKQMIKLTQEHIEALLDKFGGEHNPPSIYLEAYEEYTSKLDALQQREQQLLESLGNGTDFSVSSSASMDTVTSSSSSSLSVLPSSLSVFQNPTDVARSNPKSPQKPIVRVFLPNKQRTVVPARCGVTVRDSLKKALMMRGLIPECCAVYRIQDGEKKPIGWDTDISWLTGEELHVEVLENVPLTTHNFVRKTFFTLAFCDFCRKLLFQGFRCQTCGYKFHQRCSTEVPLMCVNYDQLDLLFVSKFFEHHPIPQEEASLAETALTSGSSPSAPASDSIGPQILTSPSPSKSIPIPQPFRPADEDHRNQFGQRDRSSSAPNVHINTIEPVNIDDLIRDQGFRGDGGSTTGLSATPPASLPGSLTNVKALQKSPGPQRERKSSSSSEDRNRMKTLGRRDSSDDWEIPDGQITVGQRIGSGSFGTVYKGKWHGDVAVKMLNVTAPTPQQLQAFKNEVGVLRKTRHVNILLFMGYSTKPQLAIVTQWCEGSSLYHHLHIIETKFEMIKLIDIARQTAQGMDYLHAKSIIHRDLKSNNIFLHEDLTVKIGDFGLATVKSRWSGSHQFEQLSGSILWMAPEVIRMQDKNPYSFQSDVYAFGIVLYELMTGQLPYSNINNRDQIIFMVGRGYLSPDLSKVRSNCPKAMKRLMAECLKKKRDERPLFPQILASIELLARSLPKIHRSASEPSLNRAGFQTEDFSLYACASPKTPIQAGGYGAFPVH
Sequence of RAF proto-oncogene serine/threonine-protein kinase (P04049 whole entry Y340D/Y341D): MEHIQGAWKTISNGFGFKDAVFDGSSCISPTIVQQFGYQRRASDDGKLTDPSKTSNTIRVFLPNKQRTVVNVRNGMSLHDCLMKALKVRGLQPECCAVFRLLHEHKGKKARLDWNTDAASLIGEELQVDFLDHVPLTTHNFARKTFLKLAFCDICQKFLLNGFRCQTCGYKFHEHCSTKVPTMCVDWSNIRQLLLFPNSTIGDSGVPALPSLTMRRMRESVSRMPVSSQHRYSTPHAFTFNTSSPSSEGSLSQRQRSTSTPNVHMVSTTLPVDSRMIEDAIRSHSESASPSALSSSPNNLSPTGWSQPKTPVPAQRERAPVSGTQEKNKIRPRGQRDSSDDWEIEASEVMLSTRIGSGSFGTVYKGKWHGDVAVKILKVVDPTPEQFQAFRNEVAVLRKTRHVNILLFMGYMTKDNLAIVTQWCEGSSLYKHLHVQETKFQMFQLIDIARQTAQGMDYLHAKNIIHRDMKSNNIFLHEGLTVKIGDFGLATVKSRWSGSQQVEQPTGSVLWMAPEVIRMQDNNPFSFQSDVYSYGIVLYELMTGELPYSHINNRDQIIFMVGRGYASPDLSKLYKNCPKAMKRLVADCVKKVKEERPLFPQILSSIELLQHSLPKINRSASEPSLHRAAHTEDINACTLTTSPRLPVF

COc1n[nH]c2ncc(NC(=O)c3cc(NC(=O)NCCC(C)(C)C)c(F)cc3C)cc12
IC50 (A549 [1]): 986 nM | IC50 (A-375 [2]): 47.4 nM | Ki [3]: < 0.05 nM | IC50 (A549 [4]): 158 nM

O=C(c1ccc(F)c(F)c1Nc1ccc(I)cc1F)N1CC(O)([C@@H]2CCCCN2)C1
Activity (HCT-116 [5]): Active | inhibition (Mus musculus [6]): Active

Cc1cc(F)c(NC(=O)NCCC(C)(C)C)cc1Nc1ccc2ncn(C)c(=O)c2c1F
half-life [7]: 48 min | Activity (Mus musculus [8]): Active | Activity (Mus musculus [9]): Active | Vd [10]: 1.4 L/kg | Papp A→B [11]: 13 ×10⁻⁶ cm/s | IC50 (A549 [1]): 2900 nM | bioavailability [12]: 26% | Activity (Mus musculus [13]): Active | solubility kinetic [14]: 3 µM (≈ 1.33 µg/mL) | Activity (Mus musculus [15]): Active | Activity (HCT-116 [16]): Active | Activity (A549 [17]): Dose-Dependent Effect | IC50 (A-375 [2]): 112 nM | inhibition in vivo at 10 mg/kg (HCT-116 [18]): 110% | Activity (Mus musculus [19]): Active | logD [20]: 4.47 | Activity (A-375 [21]): Active | Activity (HCT-116 [22]): Active | Ki [3]: 0.061 nM | Ki [23]: < 0.08 nM | bioavailability [24]: 60% | Activity (Mus musculus [25]): Active | clearance [26]: 27 mL/min/kg | Activity [27]: 10% | Activity [28]: Non-Toxic | IC50 (A549 [4]): 169 nM

Cc1cc(F)c(NC(=O)NCCC(C)(C)C)cc1NC(=O)c1cccc2c(N)ncnc12
IC50 (A549 [1]): 528 nM | IC50 (A-375 [2]): 8 nM | Ki [3]: < 0.05 nM | Ki [23]: < 0.08 nM | IC50 (A549 [4]): 96.8 nM

Cc1cc(F)c(NC(=O)NCCC(C)(C)C)cc1Nc1ccc2ncn(C)c(=O)c2c1
half-life [7]: 30 min | Vd [10]: 0.94 L/kg | Papp A→B [11]: 3.6 ×10⁻⁶ cm/s | IC50 (A549 [1]): 2700 nM | solubility kinetic [14]: < 1 µM | IC50 (A-375 [2]): 405 nM | logD [20]: 4.47 | Ki [3]: < 0.05 nM | Ki [23]: < 0.08 nM | bioavailability [29]: 2% | clearance [26]: 50 mL/min/kg | IC50 (A549 [4]): 253 nM | bioavailability [30]: 0%

CNc1cc(-c2cccnc2Nc2cc(NC(=O)NCCC(C)(C)C)c(F)cc2C)ncn1
IC50 (A549 [1]): 2400 nM | IC50 (A-375 [2]): 92.6 nM | Ki [3]: 0.06 nM | Ki [23]: < 0.08 nM | IC50 (A549 [4]): 208 nM

Cc1cc(F)c(NC(=O)NCCC(C)(C)C)cc1NC(=O)N(C)c1cc(N)ncn1
IC50 (A549 [1]): 1400 nM | IC50 (A-375 [2]): 85.3 nM | Ki [3]: < 0.05 nM | Ki [23]: < 0.08 nM | IC50 (A549 [4]): 104 nM
